Assay [1] concerns mdx mice. Briefly: Chronic treatment of mdx mice, CD68 immunostaining (macrophages). The format is in vivo, mouse. To be noted: for CD68+ cells, number of cells per myofiber: SR12343 30 mg/kg 4 wk, single measures and ave, 30 mg/kg. How it is done: To determine whether SR12343 and SR12460 improve muscle pathology, TA muscle was stained with hematoxylin–eosin to assess inflammatory infiltration, necrosis, central nucleation, and fibrosis. […] In addition, Masson trichrome stain was conducted to further measure muscle fibrosis. Chronic treatment with SR12343 reduced muscle fibrosis (blue) in diaphragm and TA muscle tissues in comparison to control group (Fig 8A & 8B). To further quantitate the extent of inflammation in mdx muscle tissues, diaphragm and TA muscle were immunostained for cluster of differentiation 68 (CD68), a macrophage marker. Treatment with SR12343 reduced the number of CD68^+ cells by almost 50% per myofiber in both diaphragm and TA tissues (Fig 8A & 8B). […] To quantify the average fiber size in an unbiased way, TA muscle was stained with laminin to outline myofibers, and Feret diameter of all myocytes was quantitated in a whole muscle section.
Fig 8 Chronic treatment with NBD mimetics reduces muscle fibrosis by decreasing macrophage infiltration in mdx mice. (A, B) Trichrome and CD68 staining of (A) diaphragm and (B) TA muscle from 7-wk-old, SR12343-treated or -untreated mdx mice. CD68 (red): marker of tissue macrophage; utrophin (green): stain for myofiber; DAPI (blue): nuclei. Trichrome images were taken at the magnification of 4× for TA and 10× for diaphragm. IHC images were taken at 10× for TA and 20× for diaphragm. Representative images were shown for each treatment group. Data were shown as mean +/− SEM. *P < 0.05; **P < 0.01; ***P < 0.001. Underlying data can be found in S1 Data. CD68, cluster of differentiation 68; IHC, immunohistochemistry; NBD, NEMO-binding domain; NEMO, NF-κB essential modulator; TA, tibialis anterior.
The frozen tissue sections were fixed with 4% paraformaldehyde for 1 h and incubated with 1% BSA for blocking. The primary antibodies CD68 (Abcam, Cambridge, MA) and utrophin (Santa Cruz) were applied at 1:200 for 2 h. The secondary antibodies Alexa Fluor 594 and Alexa Fluor 488 were then applied at 1:400 for 1 h. DAPI (1;1000) solution was used to stain the cell nucleus. All the processes were performed at room temperature.

Assay [2] relates to phosphorylated IKK complex, IκBα and p65. Kind of assay: Western blot of IKK/NF-κB signaling in Raw 264.7 cells (TNF-α or LPS). The format is cell-based, mouse. To be noted: 150 μM (S2A Fig: 0-150 μM), 30 min; TNF-α 10 ng/ml or LPS 1 μg/ml 10 min. How it is done:
To determine whether the novel NBD mimetics target the NEMO-IKKβ interaction in vivo, co-immunoprecipitations were performed using extracts from Raw 264.7 macrophages (Fig 5A). […] No interaction between NEMO and TNF receptor-associated factor 2 (TRAF2) or IκBα was observed under these conditions. […] The levels of phosphorylated IKK complex, IκBα, and p65 in response to TNF-α and LPS were all reduced by SR12343 (Fig 5D & 5E). […] However, there were no changes in the levels of phospho-c-Jun N-terminal kinase (p-JNK), p-p38MAPK, total JNK, and p38MAPK by treatment with SR12343 (150 μM) in response to TNF-α or LPS stimulation (Fig 5G & 5H). […]
(A) Co-IP analysis detecting the IKKβ/NEMO interaction. […] NEMO-binding products were then analyzed for levels of IKKβ, IKKα, TRAF2, and IκBα (negative control), and levels of NEMO were used as a loading control (left panel). […] The levels of IKKβ-FLAG binding to GST-NEMO were determined by western blot analysis with GST-NEMO used as a loading control. […] Cell lysates were analyzed for activity of the IKK/NF-κB signaling pathway including activation of IKK complex, IκBα, and p65. […] Cell lysates were harvested and analyzed for activation of noncanonical NF-κB signaling, the processing of p100 to p52. […]
(In western blotting, separated proteins are transferred to a membrane and probed.)

The values below come from article PMC6013238, “Development of novel NEMO-binding domain mimetics for inhibiting IKK/NF-κB activation” (PLoS Biology, 2018).

Each structure is given as a SMILES string. “And” between values parts separate entries of the source, which are not always exact repeats. Identical values can stand only once. “Also recorded” adds a separate entry of the source.

For the compound `O=C(CNc1ccc(Cl)cn1)NCCc1cccc(Br)c1` [SR12343], the “CD68+ cells, number of cells per myofiber” value was 1.156 and 1.07 and 1.196 in assay [1] (Fig 8A, diaphragm muscle); 1.14 in assay [1] (Fig 8A, diaphragm muscle, mean); 0.646 and 0.5862 and 0.6154 in assay [1] (Fig 8B, TA muscle); 0.6159 in assay [1] (Fig 8B, TA muscle, mean). Moreover, the “Reduction of number of CD68+ cells per myofiber” value in assay [1] (diaphragm and TA tissues) is approximately 50%. Moreover, the “Levels of phosphorylated IKK complex, IκBα and p65” value in assay [2] was “inhibited phosphorylation of IKKα/β and p65 and prevented IκBα from degradation; also recorded: all reduced”.
